In PubChem BioAssay AID330 (DTP/NCI, 2004):
Values joined by “and” are separate entries in the source; they are usually repeats but may differ in a detail not shown here. Equal values may be shown once. Inconclusive results and toxic doses are left out. The calls were made as follows: active = survival T/C of 150% or more; inactive = T/C below 125% in these data.

Test system: P388 leukemia ip, CD2F1 mice, survival T/C
Experiment: NCI In Vivo Anticancer Drug Screen. Data for tumor model P388 Leukemia (intraperitoneal) in CD2F1 (CDF1) mice
Settings: endpoint: median survival time, higher = longer survival
Summary of the method: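 Mice carrying the transplanted tumor received test compound or vehicle. Survival was recorded in each group, and the value is the treated-group measurement divided by that of the vehicle-treated control group.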

[1] = dose: 60.0 mg/kg/injection, schedule: Q01DX005 (ip), vehicle: saline with Tween-80
[2] = dose: 120.0 mg/kg/injection, schedule: Q01DX005 (ip), vehicle: saline with Tween-80
[3] = dose: 240.0 mg/kg/injection, schedule: Q01DX005 (ip), vehicle: saline with Tween-80
[4] = dose: 25.0 mg/kg/injection, schedule: Q01DX005 (ip), vehicle: saline with Tween-80
[5] = dose: 50.0 mg/kg/injection, schedule: Q01DX005 (ip), vehicle: saline with Tween-80
[6] = dose: 100.0 mg/kg/injection, schedule: Q01DX005 (ip), vehicle: saline with Tween-80
[7] = dose: 200.0 mg/kg/injection, schedule: Q01DX005 (ip), vehicle: saline with Tween-80
[8] = dose: 50.0 mg/kg/injection, schedule: Q01DX005 (ip), vehicle: Klucel (hydroxypropylcellulose) (HPC)
[9] = dose: 100.0 mg/kg/injection, schedule: Q01DX005 (ip), vehicle: Klucel (hydroxypropylcellulose) (HPC)
[10] = dose: 200.0 mg/kg/injection, schedule: Q01DX005 (ip), vehicle: Klucel (hydroxypropylcellulose) (HPC)

Measured: T/C

Nc1ncnc2c1ncn2CC1OC(O)C(O)C1NC(=O)C(N)Cc1ccccc1 (centres undefined)
inactive: dose: 8.0 mg/kg/injection, schedule: Q01DX005 (ip), vehicle: saline 94 % of control | dose: 16.0 mg/kg/injection, schedule: Q01DX005 (ip), vehicle: saline 106 % of control | dose: 32.0 mg/kg/injection, schedule: Q01DX005 (ip), vehicle: saline 94 % of control | dose: 64.0 mg/kg/injection, schedule: Q01DX005 (ip), vehicle: saline 101 % of control | dose: 128.0 mg/kg/injection, schedule: Q01DX005 (ip), vehicle: saline 94 % of control | dose: 256.0 mg/kg/injection, schedule: Q01DX005 (ip), vehicle: saline 97 % of control

CC1(C)CC2C=C(C=O)C3(C=O)CC3(C)C2C1 (centres undefined)
inactive: dose: 0.78 mg/kg/injection, schedule: Q01DX009 (ip), vehicle: Klucel (hydroxypropylcellulose) (HPC) 96 % of control | dose: 1.56 mg/kg/injection, schedule: Q01DX009 (ip), vehicle: Klucel (hydroxypropylcellulose) (HPC) 112 % of control | dose: 3.12 mg/kg/injection, schedule: Q01DX009 (ip), vehicle: Klucel (hydroxypropylcellulose) (HPC) 111 % of control | dose: 6.25 mg/kg/injection, schedule: Q01DX009 (ip), vehicle: Klucel (hydroxypropylcellulose) (HPC) 111 % of control

CC(C)NC1(N(C)C)N=C(N(C)C)N=C(N(C)C)O1 (centres undefined)
inactive: dose: 50.0 mg/kg/injection, schedule: Q01DX005 (ip), vehicle: saline 101 % of control | dose: 100.0 mg/kg/injection, schedule: Q01DX005 (ip), vehicle: saline 101 % of control

OCCNCCNCC[OH2+].OCCNCCNCC[OH2+].[Ni+2].[O-][Cl+3]([O-])([O-])[O-]
inactive: dose: 12.5 mg/kg/injection, schedule: Q01DX009 (ip), vehicle: saline 100 % of control | dose: 25.0 mg/kg/injection, schedule: Q01DX009 (ip), vehicle: saline 98 % of control

O=C(O)Cc1c(-c2noc(-c3ccccc3)c2CC(=O)O)noc1-c1ccccc1
inactive: [1] 99 % of control | [2] 103 % of control | [3] 108 % of control

Cc1ccc([N+](=O)[O-])cc1NC(=O)Nc1onc(C)c1C
inactive: [1] 87 % of control | [2] 93 % of control | [3] 88 % of control

CCOc1cc2c(cc1C(C)c1ccc(OC(C)C)cc1)OCO2 (centres undefined)
inactive: [4] 108 % of control | [5] 106 % of control | [6] 103 % of control | [7] 103 % of control

c1cc2c3c(cccc3c1)NC(c1ccc3c(c1)OCO3)N2
inactive: [8] 100 % of control | [9] 100 % of control | [10] 95 % of control

Clc1ccc2c3c([nH]c2c1)CCc1cncnc1-3
inactive: dose: 100.0 mg/kg/injection, schedule: Q01DX001 (ip), vehicle: Klucel (hydroxypropylcellulose) (HPC) 93 % of control | dose: 200.0 mg/kg/injection, schedule: Q01DX001 (ip), vehicle: Klucel (hydroxypropylcellulose) (HPC) 90 % of control | dose: 400.0 mg/kg/injection, schedule: Q01DX001 (ip), vehicle: Klucel (hydroxypropylcellulose) (HPC) 90 % of control

CCCCCCCCCCCCn1cc[n+](CC(=O)N(O)Cc2ccccc2)c1C
inactive: dose: 1.56 mg/kg/injection, schedule: Q01DX005 (ip), vehicle: saline with Tween-80 93 % of control | dose: 3.12 mg/kg/injection, schedule: Q01DX005 (ip), vehicle: saline with Tween-80 90 % of control | dose: 6.25 mg/kg/injection, schedule: Q01DX005 (ip), vehicle: saline with Tween-80 86 % of control

O=C1C2=C(Nc3cc([N+](=O)[O-])ccc3N2)OC1c1ccc2c(c1)OCO2 (centres undefined)
inactive: dose: 1.87 mg/kg/injection, schedule: Q01DX005 (ip), vehicle: Klucel (hydroxypropylcellulose) (HPC) 89 % of control | dose: 3.75 mg/kg/injection, schedule: Q01DX005 (ip), vehicle: Klucel (hydroxypropylcellulose) (HPC) 90 % of control | dose: 7.5 mg/kg/injection, schedule: Q01DX005 (ip), vehicle: Klucel (hydroxypropylcellulose) (HPC) 90 % of control | dose: 15.0 mg/kg/injection, schedule: Q01DX005 (ip), vehicle: Klucel (hydroxypropylcellulose) (HPC) 88 % of control | dose: 30.0 mg/kg/injection, schedule: Q01DX005 (ip), vehicle: Klucel (hydroxypropylcellulose) (HPC) 87 % of control | dose: 120.0 mg/kg/injection, schedule: Q01DX005 (ip), vehicle: Klucel (hydroxypropylcellulose) (HPC) 89 % of control and 90 % of control | dose: 240.0 mg/kg/injection, schedule: Q01DX005 (ip), vehicle: Klucel (hydroxypropylcellulose) (HPC) 93 % of control

CCOC(=O)Cc1cc2c(cc1C)CN=C(OCC)C2
inactive: dose: 6.25 mg/kg/injection, schedule: Q01DX009 (ip), vehicle: distilled water + Tween-80 100 % of control | dose: 12.5 mg/kg/injection, schedule: Q01DX009 (ip), vehicle: distilled water + Tween-80 103 % of control | dose: 25.0 mg/kg/injection, schedule: Q01DX009 (ip), vehicle: distilled water + Tween-80 94 % of control | dose: 50.0 mg/kg/injection, schedule: Q01DX009 (ip), vehicle: distilled water + Tween-80 91 % of control | dose: 100.0 mg/kg/injection, schedule: Q01DX009 (ip), vehicle: distilled water + Tween-80 91 % of control | dose: 200.0 mg/kg/injection, schedule: Q01DX009 (ip), vehicle: distilled water + Tween-80 90 % of control | dose: 400.0 mg/kg/injection, schedule: Q01DX009 (ip), vehicle: distilled water + Tween-80 100 % of control

COC1/C=C/OC2(C)Oc3c(C)c(O)c4c(O)c(c(/C=N/N(C)c5nc6c(N)ncnc6n5C5OC(CO)C(O)C5O)c(O)c4c3C2=O)NC(=O)C(C)=C/C=C/C(C)C(O)C(C)C(O)C(C)C(OC(C)=O)C1C (centres undefined)
inactive: dose: 50.0 mg/kg/injection, schedule: Q01DX009 (ip), vehicle: saline with Tween-80 101 % of control | dose: 100.0 mg/kg/injection, schedule: Q01DX009 (ip), vehicle: saline with Tween-80 97 % of control | dose: 200.0 mg/kg/injection, schedule: Q01DX009 (ip), vehicle: saline with Tween-80 101 % of control

Cc1ccc(S(=O)(=O)CCC(=O)c2ccc([N+](=O)[O-])cc2)cc1
inactive: [8] 96 % of control | [9] 96 % of control | [10] 96 % of control

CNNS(=O)(=O)CC(O)C(Cl)(Cl)Cl (centres undefined)
inactive: dose: 50.0 mg/kg/injection, schedule: Q01DX009 (ip), vehicle: saline 106 % of control | dose: 100.0 mg/kg/injection, schedule: Q01DX009 (ip), vehicle: saline 101 % of control

C1=C\CCCCCCCC/1
inactive: dose: 1.56 mg/kg/injection, schedule: Q01DX009 (ip), vehicle: saline with Tween-80 100 % of control | dose: 3.13 mg/kg/injection, schedule: Q01DX009 (ip), vehicle: saline with Tween-80 91 % of control | dose: 6.25 mg/kg/injection, schedule: Q01DX009 (ip), vehicle: saline with Tween-80 100 % of control | dose: 6.25 mg/kg/injection, schedule: Q04DX003 (ip), vehicle: saline 109 % of control | dose: 12.5 mg/kg/injection, schedule: Q04DX003 (ip), vehicle: saline 100 % of control | dose: 25.0 mg/kg/injection, schedule: Q04DX003 (ip), vehicle: saline 104 % of control

CC(=O)OCc1cc(-c2nc3ccccc3[nH]c2=O)nn1-c1ccc(Cl)cc1
inactive: dose: 25.0 mg/kg/injection, schedule: Q01DX005 (ip), vehicle: distilled water + alcohol 93 % of control | dose: 50.0 mg/kg/injection, schedule: Q01DX005 (ip), vehicle: distilled water + alcohol 90 % of control | dose: 100.0 mg/kg/injection, schedule: Q01DX005 (ip), vehicle: distilled water + alcohol 86 % of control | dose: 200.0 mg/kg/injection, schedule: Q01DX005 (ip), vehicle: distilled water + alcohol 87 % of control

O=C(/C=C/C1CCCC(O)C1)C1CCCCC1 (centres undefined)
inactive: [5] 91 % of control | [6] 89 % of control | [7] 91 % of control

NC(=O)N=Nc1ccc(Cl)cc1
inactive: [5] 104 % of control | [6] 101 % of control | [7] 104 % of control

COC(=O)Nc1cn2c(n1)SCC2
inactive: [1] 98 % of control | [2] 95 % of control | [3] 100 % of control

CS/C(=N\N=C(/C)c1ccccn1)SS/C(=N/N=C(\C)c1ccccn1)SC
inactive: dose: 12.5 mg/kg/injection, schedule: Q01DX005 (ip), vehicle: saline + Tween-80 + alcohol 98 % of control | dose: 25.0 mg/kg/injection, schedule: Q01DX005 (ip), vehicle: saline + Tween-80 + alcohol 97 % of control | dose: 50.0 mg/kg/injection, schedule: Q01DX005 (ip), vehicle: saline + Tween-80 + alcohol 101 % of control and 103 % of control | dose: 100.0 mg/kg/injection, schedule: Q01DX005 (ip), vehicle: saline + Tween-80 + alcohol 111 % of control

C#CCOC(=O)c1ccccc1
inactive: dose: 12.5 mg/kg/injection, schedule: Q01DX005 (ip), vehicle: saline with Tween-80 104 % of control | [4] 89 % of control | [5] 104 % of control and 95 % of control

CCC(/C=C/c1ccccc1)=N\NC(=O)c1ccc(Cl)c(Cl)c1
inactive: [1] 88 % of control and 89 % of control | [2] 88 % of control | [3] 92 % of control and 97 % of control
